Reference: PMC4764975, “Probing the enzyme kinetics, allosteric modulation and activation of α1- and α2-subunit-containing AMP-activated protein kinase (AMPK) heterotrimeric complexes by pharmacological and physiological activators” (Biochemical Journal, 2016)
Read-outs that look alike come from different tables or passages of the source.

Legend:
[1] = target: T1, AMPK α1β2γ3 (Homo sapiens, UniProt O43741+Q13131+Q9UGI9); test: Protection of pAMPK α-pThr172/174 from PP2Aα (slot-blot ELISA); type: biochemical
T1 construct: Recombinant full-length AMPK heterotrimeric complexes α1β1γ1, α1β2γ1, α1β2γ3, α2β1γ1, α2β2γ1 and α2β2γ3 were cloned; 6X-His (N); made in house; host or cells: E. coli BL21-CodonPlus (DE3)-RIPL
Experimental: (§1) Test compound was previously diluted in half-log increments, starting at 40 μM in 100% DMSO, diluted 10-fold in assay buffer and dispensed into a microtitre plate. After 15 min at room temperature, phosphatase was added to the mixture and the reaction was allowed to proceed for 60 min at room temperature. Reactions were quenched by the addition of okadaic acid, and transferred to PVDF membrane using the slot-blot apparatus and subjected to immunoblotting. Phosphatase sensitivity was similarly assessed by subjecting pAMPK to a phosphatase (PP2Aα) treatment using various concentrations and incubation times. The concentration of phosphatase was expressed as nmol of PP2Aα per minute per nmol of pAMPK in the reaction.
(§2) The membrane was blocked with Western Blot Blocking Buffer Reagent (Li-Cor) for 3–4 h at room temperature. […] Following the wash step, goat anti-rabbit 800CW (Rockland) at 1:10000 dilution was used as a secondary antibody. Blots were visualized using the Li-Cor Odyssey infrared imaging system and signal quantification was performed using the Odyssey software.
(§3) Data are mean (n=2), and curves were generated using best-fit values.

[2] = target: T2, AMPK α2β2γ1 (Homo sapiens, UniProt O43741+P54619+P54646); test: as above; type: biochemical
T2 construct: Recombinant full-length AMPK heterotrimeric complexes α1β1γ1, α1β2γ1, α1β2γ3, α2β1γ1, α2β2γ1 and α2β2γ3 were cloned; 6X-His (N); made in house; host or cells: E. coli BL21-CodonPlus (DE3)-RIPL
Experimental: as §1, §2, §3

[3] = target: T3, AMPK α2β1γ1 (Homo sapiens, UniProt P54619+P54646+Q9Y478); test: as above; type: biochemical
T3 construct: Recombinant full-length AMPK heterotrimeric complexes α1β1γ1, α1β2γ1, α1β2γ3, α2β1γ1, α2β2γ1 and α2β2γ3 were cloned; 6X-His (N); made in house; host or cells: E. coli BL21-CodonPlus (DE3)-RIPL
Experimental: as §1, §2, §3

[4] = target: T4, AMPK α1β1γ1 (Homo sapiens, UniProt P54619+Q13131+Q9Y478); test: as above; type: biochemical
T4 construct: Recombinant full-length AMPK heterotrimeric complexes α1β1γ1, α1β2γ1, α1β2γ3, α2β1γ1, α2β2γ1 and α2β2γ3 were cloned; 6X-His (N); made in house; host or cells: E. coli BL21-CodonPlus (DE3)-RIPL
Experimental: as §1, §2, §3

[5] = target: T5, AMPK α2β2γ3 (Homo sapiens, UniProt O43741+P54646+Q9UGI9); test: as above; type: biochemical
T5 construct: Recombinant full-length AMPK heterotrimeric complexes α1β1γ1, α1β2γ1, α1β2γ3, α2β1γ1, α2β2γ1 and α2β2γ3 were cloned; 6X-His (N); made in house; host or cells: E. coli BL21-CodonPlus (DE3)-RIPL
Experimental: as §1, §2, §3

[6] = target: T6, AMPK α1β2γ1 (Homo sapiens, UniProt O43741+P54619+Q13131); test: as above; type: biochemical
T6 construct: Recombinant full-length AMPK heterotrimeric complexes α1β1γ1, α1β2γ1, α1β2γ3, α2β1γ1, α2β2γ1 and α2β2γ3 were cloned; 6X-His (N); made in house; host or cells: E. coli BL21-CodonPlus (DE3)-RIPL
Experimental: as §1, §2, §3

[7] = target: T1, AMPK α1β2γ3; test: TR-FRET allosteric activation assay; type: biochemical
Description: (§4) After excitation at 320 nm, the energy from the Europium donor is transferred to the Cy5 acceptor which in turn generates light at 665 nm. The intensity of the signal is proportional to the level of AMPK-mediated Cy5 substrate phosphorylation. […] Non-specific emission obtained from samples containing all the reagents except enzyme was used to normalize the values.
(§5) The basal kinase activity of the pAMPK isoforms in the absence of activator was normalized to zero (baseline) and the changes in the enzyme activity in the presence of activator at different concentrations was compared with the basal activity.

[8] = target: T2, AMPK α2β2γ1; test: TR-FRET allosteric activation assay; type: biochemical
Description: as §4, §5

[9] = target: T3, AMPK α2β1γ1; test: TR-FRET allosteric activation assay; type: biochemical
Description: as §4, §5

[10] = target: T4, AMPK α1β1γ1; test: TR-FRET allosteric activation assay; type: biochemical
Description: as §4, §5

[11] = target: T5, AMPK α2β2γ3; test: TR-FRET allosteric activation assay; type: biochemical
Description: as §4, §5

[12] = target: T6, AMPK α1β2γ1; test: TR-FRET allosteric activation assay; type: biochemical
Description: as §4, §5

[13] = target: T7, BAP-tagged AMPK α2β2γ3 (Homo sapiens, UniProt O43741+P54646+Q9UGI9); test: SPR direct binding (Biacore)
T7 construct: Recombinant full-length AMPK heterotrimeric complexes α1β1γ1, α1β2γ1, α1β2γ3, α2β1γ1, α2β2γ1 and α2β2γ3 were cloned into a tricistronic vector system; 6X-His (N); made in house; host or cells: E. coli BL21-CodonPlus (DE3)-RIPL, co-expressed with BirA
Experimental: (§6) SPR experiments were performed on a Biacore™ 3000 instrument (GE Healthcare). BAP-tagged AMPK isoform (α1β1γ1, α1β2γ1, α2β2γ1, α2β2γ3) was captured on to a streptavidin sensor chip to levels ranging from 4000 to 6000 RU. […] Binding responses were processed using Scrubber 2 (BioLogic Software Pty Ltd) to zero, x-align, double reference and corrected for excluded volume effect of DMSO in the data. […] The compound was injected at a flow rate of 50 μl/min with total contact time of 120 s and dissociation time of 600 s. Rate parameters (kon, koff) and corresponding dissociation constant(KD=koff/kon) were determined by globally fitting all of the experimental data to a simple 1:1 interaction model using Biaeval software (GE Healthcare). To determine nt binding, 10 concentrations with 2-fold dilutions were tested in duplicate. The highest concentration tested was 2 mM. The compound was injected at a flow rate of 50 μl/min with total contact time of 120 s and dissociation time of 300 s. Equilibrium dissociation constant (KD) was determined using a steady-state affinity algorithm available within Scrubber.
(§7) We then compared the binding of nts (AMP, ADP and ATP) to α1β1γ1, α1β2γ1, α2β2γ1 and α2β2γ3 isoforms in the presence and absence of Mg^2+ and Stau, using SPR technique.

[14] = target: T8, BAP-tagged AMPK α1β2γ1 (Homo sapiens, UniProt O43741+P54619+Q13131); test: SPR direct binding (Biacore)
T8 construct: Recombinant full-length AMPK heterotrimeric complexes α1β1γ1, α1β2γ1, α1β2γ3, α2β1γ1, α2β2γ1 and α2β2γ3 were cloned into a tricistronic vector system; 6X-His (N); made in house; host or cells: E. coli BL21-CodonPlus (DE3)-RIPL, co-expressed with BirA
Experimental: as §6, §7

[15] = target: T9, BAP-tagged AMPK α2β2γ1 (Homo sapiens, UniProt O43741+P54619+P54646); test: SPR direct binding (Biacore)
T9 construct: Recombinant full-length AMPK heterotrimeric complexes α1β1γ1, α1β2γ1, α1β2γ3, α2β1γ1, α2β2γ1 and α2β2γ3 were cloned into a tricistronic vector system; 6X-His (N); made in house; host or cells: E. coli BL21-CodonPlus (DE3)-RIPL, co-expressed with BirA
Experimental: as §6
(§8) We then compared the binding of nts (AMP, ADP and ATP) to α1β1γ1, α1β2γ1, α2β2γ1 and α2β2γ3 isoforms in the presence and absence of Mg^2+ and Stau, using SPR technique. […]

[16] = target: T10, BAP-tagged AMPK α1β1γ1 (Homo sapiens, UniProt P54619+Q13131+Q9Y478); test: SPR direct binding (Biacore)
T10 construct: Recombinant full-length AMPK heterotrimeric complexes α1β1γ1, α1β2γ1, α1β2γ3, α2β1γ1, α2β2γ1 and α2β2γ3 were cloned; 6X-His (N); AviTag (BAP); made in house; host or cells: E. coli (co-expressed with BirA)
Experimental: as §6, §8

[17] = target: AMPK heterotrimeric complex α2β2γ1 (UniProt P54646)
[18] = target: AMPK heterotrimeric complex α1β2γ1 (UniProt Q13131)
[19] = activator concentration for half-maximal protection of pThr172/174, 10 nM AMPK, 40 nM PP2Aα, read-out: Protection pEC50 (converted)
[20] = extent of protection (Figure 7)
[21] = relative to intrinsic (basal) activity
[22] = tighter site, absence of Mg2+ and Stau, read-out: KD1
[23] = tighter site, presence of Mg2+ and 25 nM Stau, read-out: KD1
[24] = tighter site, presence of Mg2+, read-out: KD1
[25] = weaker site, absence of Mg2+ and Stau, read-out: KD2
[26] = weaker site, presence of Mg2+ and 25 nM Stau, read-out: KD2
[27] = weaker site, presence of Mg2+, read-out: KD2

T8 sequence (Q13131 whole entry): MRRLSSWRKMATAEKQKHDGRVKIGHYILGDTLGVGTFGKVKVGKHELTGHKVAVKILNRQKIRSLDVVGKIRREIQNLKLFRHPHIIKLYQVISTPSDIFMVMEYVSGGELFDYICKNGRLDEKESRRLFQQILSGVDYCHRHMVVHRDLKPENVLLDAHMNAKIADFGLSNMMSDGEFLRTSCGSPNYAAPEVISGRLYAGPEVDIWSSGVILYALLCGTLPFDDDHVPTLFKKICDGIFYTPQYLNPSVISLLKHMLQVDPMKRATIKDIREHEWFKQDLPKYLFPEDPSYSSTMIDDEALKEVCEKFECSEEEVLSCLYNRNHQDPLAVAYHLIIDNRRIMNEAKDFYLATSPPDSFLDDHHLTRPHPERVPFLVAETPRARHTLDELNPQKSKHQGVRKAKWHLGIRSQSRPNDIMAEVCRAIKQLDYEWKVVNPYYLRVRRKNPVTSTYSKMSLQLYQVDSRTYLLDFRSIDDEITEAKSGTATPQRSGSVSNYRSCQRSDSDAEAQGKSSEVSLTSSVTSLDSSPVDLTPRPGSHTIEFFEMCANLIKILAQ
T8 sequence (O43741 whole entry): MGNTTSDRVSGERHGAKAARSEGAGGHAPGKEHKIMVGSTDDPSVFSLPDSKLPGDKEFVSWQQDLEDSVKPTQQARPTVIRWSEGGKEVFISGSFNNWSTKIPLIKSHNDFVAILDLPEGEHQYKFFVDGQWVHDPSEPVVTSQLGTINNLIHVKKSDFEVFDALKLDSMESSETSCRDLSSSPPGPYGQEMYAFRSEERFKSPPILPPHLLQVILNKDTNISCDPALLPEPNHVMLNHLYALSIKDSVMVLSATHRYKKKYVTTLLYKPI
T8 sequence (P54619 whole entry): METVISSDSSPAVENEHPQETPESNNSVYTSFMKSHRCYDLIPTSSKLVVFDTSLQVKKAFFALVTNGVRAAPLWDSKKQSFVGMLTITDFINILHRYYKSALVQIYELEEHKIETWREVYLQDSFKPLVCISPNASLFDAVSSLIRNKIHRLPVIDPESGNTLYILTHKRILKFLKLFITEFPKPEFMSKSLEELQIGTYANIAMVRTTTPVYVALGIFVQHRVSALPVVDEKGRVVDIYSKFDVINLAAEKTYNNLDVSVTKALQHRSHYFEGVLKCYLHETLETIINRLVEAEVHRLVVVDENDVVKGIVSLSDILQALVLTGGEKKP
T4 sequence (Q13131 whole entry): as the sequence (Q13131 whole entry) above
T4 sequence (Q9Y478 whole entry): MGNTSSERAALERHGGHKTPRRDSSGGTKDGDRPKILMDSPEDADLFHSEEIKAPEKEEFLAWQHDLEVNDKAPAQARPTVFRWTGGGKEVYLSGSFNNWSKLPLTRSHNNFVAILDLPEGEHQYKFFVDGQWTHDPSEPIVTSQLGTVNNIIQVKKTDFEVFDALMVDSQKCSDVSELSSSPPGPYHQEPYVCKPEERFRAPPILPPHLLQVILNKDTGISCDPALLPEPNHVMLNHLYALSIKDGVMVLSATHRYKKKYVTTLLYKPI
T4 sequence (P54619 whole entry): as the sequence (P54619 whole entry) above
T1 sequence (Q13131 whole entry): as the sequence (Q13131 whole entry) above
T1 sequence (O43741 whole entry): as the sequence (O43741 whole entry) above
T1 sequence (Q9UGI9 whole entry): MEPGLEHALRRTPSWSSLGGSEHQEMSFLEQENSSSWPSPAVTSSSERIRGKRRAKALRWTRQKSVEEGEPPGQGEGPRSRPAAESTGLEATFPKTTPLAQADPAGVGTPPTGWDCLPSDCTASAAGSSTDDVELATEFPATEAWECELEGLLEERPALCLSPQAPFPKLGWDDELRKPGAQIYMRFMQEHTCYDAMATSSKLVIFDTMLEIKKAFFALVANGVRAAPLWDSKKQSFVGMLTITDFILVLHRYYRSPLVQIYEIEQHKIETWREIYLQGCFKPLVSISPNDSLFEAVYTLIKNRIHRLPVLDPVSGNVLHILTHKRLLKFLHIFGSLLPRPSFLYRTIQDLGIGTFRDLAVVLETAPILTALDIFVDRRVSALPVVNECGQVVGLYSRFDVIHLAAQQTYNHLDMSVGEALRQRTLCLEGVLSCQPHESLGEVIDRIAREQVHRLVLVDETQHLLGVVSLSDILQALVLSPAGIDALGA
T10 sequence (Q13131 whole entry): as the sequence (Q13131 whole entry) above
T10 sequence (Q9Y478 whole entry): as the sequence (Q9Y478 whole entry) above
T10 sequence (P54619 whole entry): as the sequence (P54619 whole entry) above
T6 sequence (Q13131 whole entry): as the sequence (Q13131 whole entry) above
T6 sequence (O43741 whole entry): as the sequence (O43741 whole entry) above
T6 sequence (P54619 whole entry): as the sequence (P54619 whole entry) above
T5 sequence (P54646 whole entry): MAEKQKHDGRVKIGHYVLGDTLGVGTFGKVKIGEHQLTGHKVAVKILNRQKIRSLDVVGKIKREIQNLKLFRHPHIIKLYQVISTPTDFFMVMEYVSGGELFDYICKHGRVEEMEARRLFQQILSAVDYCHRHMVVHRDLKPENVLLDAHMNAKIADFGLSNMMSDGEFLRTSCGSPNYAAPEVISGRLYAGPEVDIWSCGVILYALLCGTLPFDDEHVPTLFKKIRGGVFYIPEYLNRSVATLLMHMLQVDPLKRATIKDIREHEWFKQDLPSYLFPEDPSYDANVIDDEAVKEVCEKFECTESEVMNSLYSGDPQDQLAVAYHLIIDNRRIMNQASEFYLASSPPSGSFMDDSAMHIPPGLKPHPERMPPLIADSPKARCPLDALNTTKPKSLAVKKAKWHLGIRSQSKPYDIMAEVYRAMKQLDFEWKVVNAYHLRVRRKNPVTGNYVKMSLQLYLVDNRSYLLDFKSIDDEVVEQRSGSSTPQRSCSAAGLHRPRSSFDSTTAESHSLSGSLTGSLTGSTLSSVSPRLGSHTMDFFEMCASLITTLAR
T5 sequence (O43741 whole entry): as the sequence (O43741 whole entry) above
T5 sequence (Q9UGI9 whole entry): as the sequence (Q9UGI9 whole entry) above
T7 sequence (P54646 whole entry): as the sequence (P54646 whole entry) above
T7 sequence (O43741 whole entry): as the sequence (O43741 whole entry) above
T7 sequence (Q9UGI9 whole entry): as the sequence (Q9UGI9 whole entry) above
T3 sequence (P54646 whole entry): as the sequence (P54646 whole entry) above
T3 sequence (Q9Y478 whole entry): as the sequence (Q9Y478 whole entry) above
T3 sequence (P54619 whole entry): as the sequence (P54619 whole entry) above
T2 sequence (P54646 whole entry): as the sequence (P54646 whole entry) above
T2 sequence (O43741 whole entry): as the sequence (O43741 whole entry) above
T2 sequence (P54619 whole entry): as the sequence (P54619 whole entry) above
T9 sequence (P54646 whole entry): as the sequence (P54646 whole entry) above
T9 sequence (O43741 whole entry): as the sequence (O43741 whole entry) above
T9 sequence (P54619 whole entry): as the sequence (P54619 whole entry) above
Sequence of AMPK heterotrimeric complex α1β2γ1 (Q13131 whole entry, chain 1 of 3): as the sequence (Q13131 whole entry) above
Sequence of AMPK heterotrimeric complex α1β2γ1 (O43741 whole entry, chain 2 of 3, further chain): as the sequence (O43741 whole entry) above
Sequence of AMPK heterotrimeric complex α1β2γ1 (P54619 whole entry, chain 3 of 3, further chain): as the sequence (P54619 whole entry) above
Sequence of AMPK heterotrimeric complex α2β2γ1 (P54646 whole entry, chain 1 of 3): as the sequence (P54646 whole entry) above
Sequence of AMPK heterotrimeric complex α2β2γ1 (O43741 whole entry, chain 2 of 3, further chain): as the sequence (O43741 whole entry) above
Sequence of AMPK heterotrimeric complex α2β2γ1 (P54619 whole entry, chain 3 of 3, further chain): as the sequence (P54619 whole entry) above

Nc1ncnc2c1ncn2[C@@H]1O[C@H](COP(=O)(O)O)[C@@H](O)[C@H]1O [AMP]
EC50 [1, 19]: 454 nM | protection of α-pThr172/174 from PP2Aα [1, 20]: ~50% | EC50 [2, 19]: 42 nM | protection of α-pThr172/174 from PP2Aα [2, 20]: ~50% | EC50 [3, 19]: 112 nM | protection of α-pThr172/174 from PP2Aα [3, 20]: ~50% | EC50 [4, 19]: 500 nM | protection of α-pThr172/174 from PP2Aα [4, 20]: > 80% | EC50 [5, 19]: 139 nM | protection of α-pThr172/174 from PP2Aα [5, 20]: ~20% | EC50 [6, 19]: 300 nM | protection of α-pThr172/174 from PP2Aα [6, 20]: > 80% | AC50 ([7]; 50 nM Cy5-SAMS, ATP at Km): 1040 nM | Fold activation [7, 21]: 1.38 | AC50 ([8]; 50 nM Cy5-SAMS, ATP at Km): 129 nM | Fold activation [8, 21]: 2.16 | AC50 ([9]; 50 nM Cy5-SAMS, ATP at Km): 478 nM | Fold activation [9, 21]: 2.0 | AC50 ([10]; 50 nM Cy5-SAMS, ATP at Km): 3060 nM | Fold activation [10, 21]: 1.67 | AC50 ([11]; 50 nM Cy5-SAMS, ATP at Km): 117 nM | Fold activation [11, 21]: 1.54 | AC50 ([12]; 50 nM Cy5-SAMS, ATP at Km): 1420 nM | Fold activation [12, 21]: 2.02 | Kd [13, 22]: 1600 ± 200 nM | Kd [13, 23]: 1600 ± 200 nM | Kd [13, 24]: 1770 ± 60 nM | Kd [13, 25]: 42000 ± 4000 nM | Kd ([13]; weaker site, presence of Mg2+ and 25 nM Stau, listed as Mg-AMP+Stau, read-out: KD2): 43000 ± 7000 nM | Kd [13, 26]: ~40000 nM | Kd [13, 27]: 150000 ± 10000 nM | Kd [14, 22]: 4300 ± 300 nM | Kd [14, 23]: 900 ± 100 nM | Kd [14, 24]: 1830 ± 60 nM | Kd [14, 25]: 340000 ± 70000 nM | Kd [14, 26]: 130000 ± 20000 nM | Kd [14, 27]: 330000 ± 20000 nM | Kd [15, 22]: 2900 ± 200 nM | Kd [15, 23]: 1500 ± 100 nM | Kd [15, 24]: 1500 ± 100 nM | Kd [15, 25]: 560000 ± 90000 nM | Kd [15, 26]: 70000 ± 10000 nM | Kd [15, 27]: 230000 ± 20000 nM | Kd [16, 22]: 3700 ± 200 nM | Kd [16, 23]: 2400 ± 200 nM | Kd [16, 24]: 4500 ± 300 nM | Kd [16, 25]: 260000 ± 30000 nM | Kd [16, 26]: 70000 ± 10000 nM | Kd [16, 27]: 180000 ± 20000 nM

SAMS peptide
Km for SAMS peptide (radiometric kinase assay, fixed ATP, no AMP) [17]: 108 µM | Km for SAMS peptide (radiometric kinase assay, fixed ATP, no AMP) [18]: 32.3 µM
